Experimental data: patent US20230113037A1 (Bayer Aktiengesellschaft, priority 2019, published 2023)

Tests used:
[1] = target: T1, AHR (Mus musculus, UniProt P30561); test: In vitro assay 3: antagonism in mouse cell line (AHR transactivation, firefly luciferase reporter, kynurenic acid prestimulated); format: cell-based; conditions: mouse Hepa 1c1c7 cells, 200 μM kynurenic acid, 20 hours, read-out: AHR Antagonism Mouse IC50
T1 sequence (P30561 1-848 P471L/N533S/M589L): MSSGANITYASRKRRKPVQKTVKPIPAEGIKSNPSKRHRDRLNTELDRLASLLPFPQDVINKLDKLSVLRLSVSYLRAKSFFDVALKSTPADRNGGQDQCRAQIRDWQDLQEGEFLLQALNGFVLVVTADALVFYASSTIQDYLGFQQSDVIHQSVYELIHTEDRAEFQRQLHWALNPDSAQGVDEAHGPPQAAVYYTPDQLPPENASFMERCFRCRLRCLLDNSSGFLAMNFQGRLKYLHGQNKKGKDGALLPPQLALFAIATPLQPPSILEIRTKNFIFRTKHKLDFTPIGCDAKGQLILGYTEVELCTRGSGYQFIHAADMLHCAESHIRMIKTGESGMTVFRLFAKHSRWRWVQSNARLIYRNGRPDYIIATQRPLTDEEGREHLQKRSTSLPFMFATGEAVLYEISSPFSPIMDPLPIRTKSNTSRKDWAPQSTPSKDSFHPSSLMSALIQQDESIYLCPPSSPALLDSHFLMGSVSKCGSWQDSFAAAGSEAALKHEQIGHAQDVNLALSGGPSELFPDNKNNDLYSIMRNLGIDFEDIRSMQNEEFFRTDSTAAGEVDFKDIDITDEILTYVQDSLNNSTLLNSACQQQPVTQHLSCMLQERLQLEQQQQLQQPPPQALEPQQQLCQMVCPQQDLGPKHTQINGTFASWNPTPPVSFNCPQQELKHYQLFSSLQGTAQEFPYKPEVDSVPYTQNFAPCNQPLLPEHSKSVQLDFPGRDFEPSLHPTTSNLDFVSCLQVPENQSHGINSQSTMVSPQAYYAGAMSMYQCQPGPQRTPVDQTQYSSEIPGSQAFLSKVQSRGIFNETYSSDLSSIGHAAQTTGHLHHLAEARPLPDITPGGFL
Method in brief: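 Mouse cells stably carrying a DRE-driven AHR-inducible firefly luciferase reporter were prestimulated with the endogenous agonist kynurenic acid before compound addition. Luciferase read by SteadyGlo; cells without kynurenic acid served as full-inhibition control, with normalization to positive and negative controls. Repeat tests reported as mean or median.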

[2] = target: T2, AHR (Homo sapiens, UniProt P35869); test: In vitro assay 1: antagonism in human cell line (AHR transactivation, firefly luciferase reporter, kynurenic acid prestimulated); format: cell-based; conditions: AHR Antagonism Human IC50 [M]
T2 construct: U87 MG glioblastoma cells (ATCC #HTB-14) endogenously expressing AHR; endogenous in cells; host or cells: U87 MG glioblastoma cells (ATCC #HTB-14)
T2 sequence (P35869 11-848): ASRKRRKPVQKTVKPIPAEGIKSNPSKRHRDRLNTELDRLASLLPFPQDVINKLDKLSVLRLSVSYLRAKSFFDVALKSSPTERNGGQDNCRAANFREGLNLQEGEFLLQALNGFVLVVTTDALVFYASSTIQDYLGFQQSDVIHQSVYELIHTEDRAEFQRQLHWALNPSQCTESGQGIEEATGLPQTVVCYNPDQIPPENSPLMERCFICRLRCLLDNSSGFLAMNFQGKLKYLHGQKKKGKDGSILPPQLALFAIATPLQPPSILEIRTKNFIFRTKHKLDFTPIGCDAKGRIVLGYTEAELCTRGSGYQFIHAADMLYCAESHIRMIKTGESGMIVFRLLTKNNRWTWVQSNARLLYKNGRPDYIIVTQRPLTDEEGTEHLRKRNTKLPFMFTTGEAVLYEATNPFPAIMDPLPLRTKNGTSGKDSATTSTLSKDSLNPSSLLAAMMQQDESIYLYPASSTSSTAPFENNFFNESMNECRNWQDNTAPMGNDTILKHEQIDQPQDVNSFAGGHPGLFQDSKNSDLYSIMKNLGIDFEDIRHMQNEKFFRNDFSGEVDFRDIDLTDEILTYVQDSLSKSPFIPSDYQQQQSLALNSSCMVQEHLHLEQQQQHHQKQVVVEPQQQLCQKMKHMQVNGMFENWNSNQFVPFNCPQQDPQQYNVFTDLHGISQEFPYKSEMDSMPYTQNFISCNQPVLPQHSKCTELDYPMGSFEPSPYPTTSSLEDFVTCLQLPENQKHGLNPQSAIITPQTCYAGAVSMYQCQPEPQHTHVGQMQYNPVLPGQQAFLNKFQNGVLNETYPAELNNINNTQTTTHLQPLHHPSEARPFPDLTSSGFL
Method in brief: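 U87 MG + DRE-firefly/constitutive-Renilla stable reporters; kynurenic acid prestim; dual-luc read; Renilla = tox; normalized vs pos/neg controls (pos: 150 μM KYNA + 5 μM staurosporine).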

| Structure (SMILES) | IC50 [1] [nM] | IC50 [2] [M] |
| --- | --- | --- |
| CC(C)c1cccc2c1nc(N[C@@H]1CCCCNC1=O)n1nc(-c3cccc(F)c3)nc21 [Example 394, (3R)-3-{[2-(3-Fluorophenyl)-7-(propan-2-yl)[1,2,4]triazolo[1,5-c]quinazolin-5-yl]amino}azepan-2-one] | 30.9 | 1.16e-08 |
| COc1ccc(-c2nc3c4c(C5COC5)cccc4nc(N[C@@H]4CCCCNC4=O)n3n2)cc1 [Example 396, (3R)-3-{[2-(4-methoxyphenyl)-10-(oxetan-3-yl)[1,2,4]triazolo[1,5-c]quinazolin-5-yl]amino}azepan-2-one] | 21.6 | 1.12e-08 |
| COc1ccc(-c2nc3c4c(C5CCOCC5)cccc4nc(N[C@@H]4CCCCNC4=O)n3n2)cc1 [Example 397, (3R)-3-{[2-(4-methoxyphenyl)-10-(oxan-4-yl)[1,2,4]triazolo[1,5-c]quinazolin-5-yl]amino}azepan-2-one] | 37.6 | 1.83e-08 |
| COc1ccc(-c2nc3c4cccc(C5(C(F)(F)F)CC5)c4nc(N[C@@H]4CCCCNC4=O)n3n2)cc1 [Example 398, (3R)-3-({2-(4-methoxyphenyl)-7-[1-(trifluoromethyl)cyclopropyl][1,2,4]triazolo[1,5-c]quinazolin-5-yl}amino)azepan-2-one] | 135 | 2.24e-08 |
| N#Cc1cccc2c1nc(N[C@@H]1CCCCNC1=O)n1nc(-c3ccc(F)cc3)nc21 [Example 402, 2-(4-Fluorophenyl)-5-{[(3R)-2-oxoazepan-3-yl]amino}[1,2,4]triazolo[1,5-c]quinazoline-7-carbonitrile] | 26.1 | 8.32e-09 |
| Cn1cc(-c2nc3c4cccc(C#N)c4nc(N[C@@H]4CCCCNC4=O)n3n2)cn1 [Example 403, 2-(1-Methyl-1H-pyrazol-4-yl)-5-{[(3R)-2-oxoazepan-3-yl]amino}[1,2,4]triazolo[1,5-c]quinazoline-7-carbonitrile] | 95.1 | 3.03e-08 |
| Cc1ccc2nc(N[C@@H]3CCCCNC3=O)n3nc(-c4cnn(C)c4)nc3c2c1C(F)F [Example 404, (3R)-3-{[10-(difluoromethyl)-9-methyl-2-(1-methyl-1H-pyrazol-4-yl)[1,2,4]triazolo[1,5-c]quinazolin-5-yl]amino}azepan-2-one] | 2760 | 3.39e-06 |
| Cc1cc2c(cc1C(F)F)nc(N[C@@H]1CCCCNC1=O)n1nc(-c3cnn(C)c3)nc21 [Example 405, (3R)-3-{[8-(difluoromethyl)-9-methyl-2-(1-methyl-1H-pyrazol-4-yl)[1,2,4]triazolo[1,5-c]quinazolin-5-yl]amino}azepan-2-one] | 792 | 3.41e-07 |
| Cc1cc(C(F)F)c2nc(N[C@@H]3CCCCNC3=O)n3nc(-c4cnn(C)c4)nc3c2c1 [Example 406, (3R)-3-{[7-(difluoromethyl)-9-methyl-2-(1-methyl-1H-pyrazol-4-yl)[1,2,4]triazolo[1,5-c]quinazolin-5-yl]amino}azepan-2-one] | 7750 | 1.01e-07 |
| Cc1ccc2nc(N[C@@H]3CCCCNC3=O)n3nc(-c4cn(C)nc4C(F)(F)F)nc3c2c1 [Example 407, (3R)-3-({9-methyl-2-[1-methyl-3-(trifluoromethyl)-1H-pyrazol-4-yl][1,2,4]triazolo[1,5-c]quinazolin-5-yl}amino)azepan-2-one] | 246 | 3.1e-07 |

More lines, now with the values ahead:

| IC50 [1] [nM] | IC50 [2] [M] | Structure (SMILES) |
| --- | --- | --- |
| 2410 | 3e-07 | COc1ccc(-c2nc3c4ccc(C(C)C)cc4nc(N[C@@H]4CCCCNC4=O)n3n2)cc1 [Example 395, (3R)-3-{[2-(4-Methoxyphenyl)-8-(propan-2-yl)[1,2,4]triazolo[1,5-c]quinazolin-5-yl]amino}azepan-2-one] |
| 55.7 | 1.85e-08 | COc1ccc(-c2nc3c4cccc(C5(C)CC5)c4nc(N[C@@H]4CCCCNC4=O)n3n2)cc1 [Example 399, (3R)-3-{[2-(4-methoxyphenyl)-7-(1-methylcyclopropyl)[1,2,4]triazolo[1,5-c]quinazolin-5-yl]amino}azepan-2-one] |
| 119 | 4.16e-08 | COc1ccc(-c2nc3c4ccc(C#N)cc4nc(N[C@@H]4CCCCNC4=O)n3n2)cc1 [Example 400, 2-(4-Methoxyphenyl)-5-{[(3R)-2-oxoazepan-3-yl]amino}[1,2,4]triazolo[1,5-c]quinazoline-8-carbonitrile] |
| 8.7 | 4.44e-09 | COc1ccc(-c2nc3c4cc(C#N)ccc4nc(N[C@@H]4CCCCNC4=O)n3n2)cc1 [Example 401, 2-(4-Methoxyphenyl)-5-{[(3R)-2-oxoazepan-3-yl]amino}[1,2,4]triazolo[1,5-c]quinazoline-9-carbonitrile] |
| 13.6 | 1.85e-07 | CN(C)c1cccc(-c2nc3c4ccccc4nc(N[C@@H]4CNCCNC4=O)n3n2)c1 [Example 408, (6R)-6-({2-[3-(dimethylamino)phenyl][1,2,4]triazolo[1,5-c]quinazolin-5-yl}amino)-1,4-diazepan-5-one] |
| 17.1 | 6.98e-08 | COc1ccc(-c2nc3c4ccccc4nc(N[C@@H]4CNCCNC4=O)n3n2)cc1OC [Example 409, (6R)-6-{[2-(3,4-dimethoxyphenyl)[1,2,4]triazolo[1,5-c]quinazolin-5-yl]amino}-1,4-diazepan-5-one] |
| 4.73 | 1.53e-08 | COc1ccc(-c2nc3c4ccccc4nc(N[C@@H]4CNCCNC4=O)n3n2)c(C)c1 [Example 410, (6R)-6-{[2-(4-methoxy-2-methylphenyl)[1,2,4]triazolo[1,5-c]quinazolin-5-yl]amino}-1,4-diazepan-5-one] |
| 11.2 | 1.77e-07 | O=C1NCCNC[C@H]1Nc1nc2ccccc2c2nc(-c3ccc(OC4CC4)cc3)nn12 [Example 411, (6R)-6-({2-[4-(cyclopropyloxy)phenyl][1,2,4]triazolo[1,5-c]quinazolin-5-yl}amino)-1,4-diazepan-5-one] |
| 236 | 8.37e-08 | O=C1NCCNC[C@H]1Nc1nc2ccccc2c2nc(-c3ccc(Br)o3)nn12 [Example 412, (6R)-6-{[2-(5-bromofuran-2-yl)[1,2,4]triazolo[1,5-c]quinazolin-5-yl]amino}-1,4-diazepan-5-one] |
| 62.1 | 8.94e-08 | Nc1cccc(-c2nc3c4ccccc4nc(N[C@@H]4CNCCNC4=O)n3n2)c1 [Example 413, (6R)-6-{[2-(3-aminophenyl)[1,2,4]triazolo[1,5-c]quinazolin-5-yl]amino}-1,4-diazepan-5-one] |
| 6.47 | 1.85e-08 | CC(C)Oc1ccc(-c2nc3c4ccccc4nc(N[C@@H]4CNCCNC4=O)n3n2)cc1 [Example 415, (6R)-6-[(2-{4-[(propan-2-yl)oxy]phenyl}[1,2,4]triazolo[1,5-c]quinazolin-5-yl)amino]-1,4-diazepan-5-one] |
| 354 | 2.1e-06 | O=C1NCCNC[C@H]1Nc1nc2ccccc2c2nc(-c3cnn(CC4CC4)c3)nn12 [Example 416, (6R)-6-({2-[1-(cyclopropylmethyl)-1H-pyrazol-4-yl][1,2,4]triazolo[1,5-c]quinazolin-5-yl}amino)-1,4-diazepan-5-one] |
